In US9249096B2, “Pyrrolinone carboxamide compounds useful as endothelial lipase inhibitors” (Bristol-Myers Squibb Company, priority 2011, dated 2016):

Target: endothelial lipase (EL) (Homo sapiens (Human), UniProt Q9Y5X9)
Assay: Endothelial lipase (EL) enzymatic assay with fluorescent substrate A10070 in DMPG vesicles
Assay type: biochemical
Conditions: conditioned media from HT-1080 cells overexpressing endogenous EL; 20 min preincubation at 37° C.; read-out: HLE_EL_CRC IC50
Procedure: Endothelial lipase activity was measured using a fluorescent substrate, A10070, (Invitrogen, CA) doped into an artificial vesicle containing DMPG (Avanti Polar Lipids) as the excipient. Vesicles were prepared by combining 285 uL of 1 mM DMPG in a 1:1 mixture of MeOH and CHCl3 with 15 uL of 1 mM A10070 in a 1:1 mixture of MeOH and CHCl3. The mixture was dried under nitrogen and resuspended in 150 uL of 50 mM HEPES pH 8.0 buffer containing 100 mM NaCl and 0.2 mM EDTA. The sample was allowed to sit at rt for 15 min and then was sonicated 3×4 mins on ice with a Branson Sonicator using duty cycle 1. This preparation provides vesicles with a mole fraction of 0.05 for the FRET substrate.
The enzymatic assay was measured using white, opaque 96-well half area plates. Each well contained 60 uL of assay buffer (50 mM HEPES pH 8.0, 50 mM NaCl and 1 mM CaCl2) and 2 ul of a DMSO solution containing compound of interest. Conditioned media obtained from HT-1080 cells, which were transformed by RAGE technology (Athersys) to overexpress endogenous EL, was added and the reaction was allowed to incubate for 20 min at 37° C. with gentle agitation. The reaction was started by the addition of 20 uL of a 1:4 dilution of vesicles. The final total reaction volume was 100 uL. The reaction rates were measured on a Gemini plate reader with an excitation wavelength of 488 nm and a emission of 530 nm. Readings were taken every 20 seconds for 10 min with agitation between each reading. The slope of the linear portion of the readout was used to calculate the rate of the reaction.
The exemplified examples disclosed in the present invention were tested in the EL assay described above and found having EL inhibitory activity.

Chain of endothelial lipase (EL) (Q9Y5X9 21-500): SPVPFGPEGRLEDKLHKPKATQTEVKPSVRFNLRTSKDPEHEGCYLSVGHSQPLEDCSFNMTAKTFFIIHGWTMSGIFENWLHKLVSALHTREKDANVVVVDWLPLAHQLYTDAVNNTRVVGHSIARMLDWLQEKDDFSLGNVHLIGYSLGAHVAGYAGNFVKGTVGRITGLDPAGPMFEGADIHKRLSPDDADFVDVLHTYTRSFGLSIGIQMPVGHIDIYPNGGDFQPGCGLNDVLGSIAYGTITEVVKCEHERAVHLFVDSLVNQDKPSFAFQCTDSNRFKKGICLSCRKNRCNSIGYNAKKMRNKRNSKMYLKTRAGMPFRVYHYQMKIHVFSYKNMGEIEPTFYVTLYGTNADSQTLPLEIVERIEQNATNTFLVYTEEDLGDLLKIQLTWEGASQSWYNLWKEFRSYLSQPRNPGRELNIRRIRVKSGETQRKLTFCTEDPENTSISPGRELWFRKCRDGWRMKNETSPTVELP

Row | SMILES | IC50 [nM]
1 | CN1C(=O)C(O)=C(C(=O)NCCCc2ccc(Cl)c(Cl)c2)C1CCc1ccccc1 (single isomer, unassigned; isomer a) [Example 195, N-(3-(3,4-dichlorophenyl)propyl)-4-hydroxy-1-methyl-5-oxo-2-phenethyl-2,5-dihydro-1H-pyrrole-3-carboxamide (isomer A)] | 523
2 | CN1CC(C(=O)NCCc2ccc(Cl)c(Cl)c2)=C(O)C1=O [Example 1, N-(3,4-dichlorophenethyl)-4-hydroxy-1-methyl-5-oxo-2,5-dihydro-1H-pyrrole-3-carboxamide] | 528
3 | CN1CC(C(=O)NCCc2ccccc2)=C(O)C1=O [Example 3, 4-hydroxy-1-methyl-5-oxo-N-phenethyl-2,5-dihydro-1H-pyrrole-3-carboxamide] | 2950
4 | CN1CC(C(=O)NCCc2ccc(Cl)cc2)=C(O)C1=O [Example 5, N-(4-chlorophenethyl)-4-hydroxy-1-methyl-5-oxo-2,5-dihydro-1H-pyrrole-3-carboxamide] | 559
5 | CN1C(=O)C(O)=C(C(=O)NCCCc2ccc(Cl)c(Cl)c2)C1C(C)(C)C (stereo not drawn) [Example 17, 2-tert-butyl-N-(3-(3,4-dichlorophenyl)propyl)-4-hydroxy-1-methyl-5-oxo-2,5-dihydro-1H-pyrrole-3-carboxamide] | 430
6 | Cc1ccc(CC2C(C(=O)NCCCc3ccc(Cl)c(Cl)c3)=C(O)C(=O)N2C)cc1 (stereo not drawn) [Example 30, N-(3-(3,4-dichlorophenyl)propyl)-4-hydroxy-1-methyl-2-(4-methylbenzyl)-5-oxo-2,5-dihydro-1H-pyrrole-3-carboxamide] | 584
7 | O=C(NCCCc1ccc(Cl)c(Cl)c1)C1=C(O)C(=O)N(Cc2cccc(F)c2)C1 [Example 50, N-(3-(3,4-dichlorophenyl)propyl)-1-(3-fluorobenzyl)-4-hydroxy-5-oxo-2,5-dihydro-1H-pyrrole-3-carboxamide] | 5.99
8 | CC(C)(C)CCN1CC(C(=O)NCCCc2ccc(Cl)c(Cl)c2)=C(O)C1=O [Example 55, N-(3-(3,4-dichlorophenyl)propyl)-1-(3,3-dimethylbutyl)-4-hydroxy-5-oxo-2,5-dihydro-1H-pyrrole-3-carboxamide] | 5.8
9 | CCOCCN1CC(C(=O)NCCCc2ccc(Cl)c(Cl)c2)=C(O)C1=O [Example 57, N-(3-(3,4-dichlorophenyl)propyl)-1-(2-ethoxyethyl)-4-hydroxy-5-oxo-2,5-dihydro-1H-pyrrole-3-carboxamide] | 6.3
10 | O=C(NCCCc1ccc(Cl)c(Cl)c1)C1=C(O)C(=O)N(Cc2cc(Cl)cc(Cl)c2)C1 [Example 60, 1-(3,5-dichlorobenzyl)-N-(3-(3,4-dichlorophenyl)propyl)-4-hydroxy-5-oxo-2,5-dihydro-1H-pyrrole-3-carboxamide] | 5.64
11 | O=C(NCCCc1ccc(Cl)c(Cl)c1)C1=C(O)C(=O)N(CCc2ccc(F)cc2)C1 [Example 64, N-(3-(3,4-dichlorophenyl)propyl)-1-(4-fluorophenethyl)-4-hydroxy-5-oxo-2,5-dihydro-1H-pyrrole-3-carboxamide] | 5.61
12 | CN1CC(C(=O)NCCCc2ccccc2)=C(O)C1=O [Example 166, 4-hydroxy-1-methyl-5-oxo-N-(3-phenylpropyl)-2,5-dihydro-1H-pyrrole-3-carboxamide] | 6440
13 | CN1CC(C(=O)NCCCc2c(Cl)cccc2Cl)=C(O)C1=O [Example 208, N-(3-(2,6-dichlorophenyl)propyl)-4-hydroxy-1-methyl-5-oxo-2,5-dihydro-1H-pyrrole-3-carboxamide] | 384
14 | CC(CCc1ccc(Cl)c(Cl)c1)NC(=O)C1=C(O)C(=O)N(C)C1 (stereo not drawn) [Example 229, N-(4-(3,4-dichlorophenyl)butan-2-yl)-4-hydroxy-1-methyl-5-oxo-2,5-dihydro-1H-pyrrole-3-carboxamide] | 4550
15 | CC(C)C(CCc1ccc(Cl)c(Cl)c1)NC(=O)C1=C(O)C(=O)N(C)C1 (stereo not drawn) [Example 230, N-(1-(3,4-dichlorophenyl)-4-methylpentan-3-yl)-4-hydroxy-1-methyl-5-oxo-2,5-dihydro-1H-pyrrole-3-carboxamide] | 9640
16 | CN1CC(C(=O)NC(CCc2ccc(Cl)c(Cl)c2)c2ccccc2)=C(O)C1=O (stereo not drawn) [Example 235, N-(3-(3,4-dichlorophenyl)-1-phenylpropyl)-4-hydroxy-1-methyl-5-oxo-2,5-dihydro-1H-pyrrole-3-carboxamide] | 3060
17 | CCN1CC(C(=O)NCCCc2cccc(OC)n2)=C(O)C1=O [Example 265, 1-ethyl-4-hydroxy-N-(3-(6-methoxypyridin-2-yl)propyl)-5-oxo-2,5-dihydro-1H-pyrrole-3-carboxamide] | 3460

Continued by falling IC50, values first:

Row | IC50 [nM] | SMILES
18 | 5.52 | O=C(NCCCc1ccc(Cl)c(Cl)c1)C1=C(O)C(=O)N(Cc2ccc(F)cc2)C1 [Example 51, N-(3-(3,4-dichlorophenyl)propyl)-1-(4-fluorobenzyl)-4-hydroxy-5-oxo-2,5-dihydro-1H-pyrrole-3-carboxamide]
19 | 5.24 | O=C(NCCCc1ccc(Cl)c(Cl)c1)C1=C(O)C(=O)N(CCc2ccccc2Cl)C1 [Example 53, 1-(2-chlorophenethyl)-N-(3-(3,4-dichlorophenyl)propyl)-4-hydroxy-5-oxo-2,5-dihydro-1H-pyrrole-3-carboxamide]
20 | 5.09 | O=C(NCCCc1ccc(Cl)c(Cl)c1)C1=C(O)C(=O)N(C2CCC2)C1 [Example 39, 1-cyclobutyl-N-(3-(3,4-dichlorophenyl)propyl)-4-hydroxy-5-oxo-2,5-dihydro-1H-pyrrole-3-carboxamide]
21 | 3.65 | O=C(NCCCc1ccc(Cl)c(Cl)c1)C1=C(O)C(=O)N(Cc2ccccc2)C1 [Example 40, 1-benzyl-N-(3-(3,4-dichlorophenyl)propyl)-4-hydroxy-5-oxo-2,5-dihydro-1H-pyrrole-3-carboxamide]
22 | 3.3 | O=C(NCCCc1ccc(Cl)c(Cl)c1)C1=C(O)C(=O)N(Cc2cccc(Cl)c2)C1 [Example 47, 1-(3-chlorobenzyl)-N-(3-(3,4-dichlorophenyl)propyl)-4-hydroxy-5-oxo-2,5-dihydro-1H-pyrrole-3-carboxamide]
23 | 3.25 | CCCCN1CC(C(=O)NCCCc2ccc(Cl)c(Cl)c2)=C(O)C1=O [Example 46, 1-butyl-N-(3-(3,4-dichlorophenyl)propyl)-4-hydroxy-5-oxo-2,5-dihydro-1H-pyrrole-3-carboxamide]
24 | 3.22 | O=C(NCCCc1ccc(Cl)c(Cl)c1)C1=C(O)C(=O)N(CCc2ccccc2)C1 [Example 44, N-(3-(3,4-dichlorophenyl)propyl)-4-hydroxy-5-oxo-1-phenethyl-2,5-dihydro-1H-pyrrole-3-carboxamide]
25 | 2.93 | CC(C)CN1CC(C(=O)NCCCc2ccc(Cl)c(Cl)c2)=C(O)C1=O [Example 42, N-(3-(3,4-dichlorophenyl)propyl)-4-hydroxy-1-isobutyl-5-oxo-2,5-dihydro-1H-pyrrole-3-carboxamide]
26 | 2.71 | CC(C)CCN1CC(C(=O)NCCCc2ccc(Cl)c(Cl)c2)=C(O)C1=O [Example 45, N-(3-(3,4-dichlorophenyl)propyl)-4-hydroxy-1-isopentyl-5-oxo-2,5-dihydro-1H-pyrrole-3-carboxamide]
27 | 1.6 | CC(C)OCCN1CC(C(=O)NCCCc2ccc(Cl)c(Cl)c2)=C(O)C1=O [Example 65, N-(3-(3,4-dichlorophenyl)propyl)-4-hydroxy-1-(2-isopropoxyethyl)-5-oxo-2,5-dihydro-1H-pyrrole-3-carboxamide]
